Reference: patent US6350778B1, “Cinnamoylaminoalkyl-substituted benzenesulfonamide derivatives, processes for their preparation, their use, and pharmaceutical preparations comprising them” (Aventis Pharma Deutschland GmbH, priority 1999, dated 2002)
Several values for one entry are separate records, joined by “and”; a condition that tells them apart may be missing. Equal values may be shown once. Values belong to the compound of their own block, whether it stands above or below them.

Tests used:
[1] = test system: chloroform-induced ventricular fibrillation in the mouse; test: Chloroform-induced ventricular fibrillation in the mouse (action in the case of vagal dysfunction); assay type: in vivo; settings: for Fibrillation ratio (in %): 3 mg/kg i.p., chloroform anesthesia 30 min later, untreated control 100%
From the text: Chloroform-induced ventricular fibrillation in the mouse (action in the case of vagal dysfunction) A hypofunction of the vagal nervous system leads to a hyperfunction of the sympathetic nervous system. Damages to health which result from an imbalance of the autonomic nervous system if the dysfunction relates to the heart, include weakening of the myocardial contractile force and fatal cardiac arrhythmias such as ventricular fibrillation. The action of the test substances was investigated in the model of chloroform-induced ventricular fibrillation in the mouse (see J. W. Lawson, “Antiarrhythmic activity of some isoquinoline derivatives determined by a rapid screening procedure in the mouse,” J. Pharmacol. Exp. Ther. 160 (1968) 22). […] As soon as respiratory arrest had occurred under deep anesthesia (toxic anesthesia stage), the thorax of the animal was opened with a pair of scissors and the heartbeat was visually inspected. It can be detected at a glance here whether the heart is beating, fibrillating, or has stopped. The respiratory arrest induced by chloroform leads, via absolute anoxia (oxygen deficiency) in combination with a direct stimulating action of chloroform on the sympathetic nervous system, to a strong stimulation of the sympathetic nervous system which in turn leads, in combination with the energy deficiency produced in the heart by oxygen deficiency, to the fatal arrhythmia, ventricular fibrillation. […] The percentage proportion of the mice having ventricular fibrillation in the individual test groups (with n animals) is indicated as the fibrillation ratio. The following fibrillation ratios were determined. […] The experiment is carried out here as described above. […] After a further 15 min, the animals were anesthetized with chloroform and the fibrillation ratio was determined.

[2] = test system: papillary muscle of the guinea pig; test: Action potential duration (APD90) in the papillary muscle of the guinea pig, shortened by rilmakalim (HOE 234); assay type: cell-based; settings: starting values 185-193 ms; for APD90 + HOE 234, 30 min, then + test substance, 60 min: test substance 2 μmol/l added after 30 min rilmakalim (HOE 234) 1 μg/ml, recorded after a further 60 min
From the text: Action potential duration in the papillary muscle of the guinea pig
ATP deficiency states, such as are observed during ischemia in the cardiac muscle cell, lead to a shortening of the action potential duration. They are regarded as one of the causes of so-called reentry arrhythmias, which can cause sudden cardiac death. The opening of ATP-sensitive potassium channels by the lowering of the ATP level is regarded as causing this (ATP=adenosine triphosphate). For the measurement of the action potential in the papillary muscle of the guinea pig a standard microelectrode technique was employed.
Guinea pigs of both sexes were killed by a blow to the head, the hearts were removed, and the papillary muscles were separated out and suspended in an organ bath. The organ bath was irrigated with Ringer's solution (136 mmol/l of NaCl, 3.3 mmol/l of KCl, 2.5 mmol/l of CaCl2, 1.2 mmol/l of KH2PO4, 1.1 mmol/l of MgSO4, 5.0 mmol/l of glucose, and 10.0 mmol/l of N-(2-hydroxyethyl)piperazine-N′-(2-ethanesulfonic acid) (HEPES), pH adjusted to 7.4 with NaOH) and aerated with 100% oxygen at a temperature of 37° C. The muscle was stimulated by means of an electrode using square-wave impulses of 1 V and 1 ms duration and a frequency of 1 Hz. The action potential was derived and recorded by means of a glass microelectrode inserted intracellularly, which was filled with 3 mol/l of KCl solution. The substance to be tested was added to the Ringer's solution in a concentration of 2 μmol/l. The action potential was amplified using an amplifier from Hugo Sachs (March-Hugstetten, Germany) and stored and analyzed by means of a computer. The duration of the action potential was determined at a degree of repolarization of 90% (APD90). The action potential shortening was produced by addition of a solution of the potassium channel opener Rilmakalim (HOE 234) (W. Linz et al., Arzneimittelforschung/Drug Research, 42 (II) (1992) 1180-1185) (rilmakalim concentration 1 μg/ml). 30 minutes after the administration of rilmakalim, the action potential duration was recorded. The test substance was then added and the action potential duration, which was prolonged again, was recorded after a further 60 minutes. The test substances were added to the bath solution as stock solutions in propanediol.
The following APD90 values (in milliseconds) were recorded.

[3] = atropine 1 mg/kg i.v., chloroform 15 min after administration, n = 10
[4] = Example 8 10 mg/kg i.p., chloroform 30 min after administration, n = 20

Structure (SMILES): CN1[C@@H]2CC[C@H]1C[C@@H](OC(=O)C(CO)c1ccccc1)C2 (some centres unmarked) [Atropine, atropine, reference compound]
Fibrillation ratio [1, 3]: 100%
Number of animals with fibrillation [1, 3]: 10
Number of animals with regular heart action [1, 3]: 0

Structure (SMILES): CNC(=S)NS(=O)(=O)c1cc(CCNC(=O)/C=C/c2ccc(OC)cc2OC)ccc1OC [Example 1, 1-(5-(2-(2,4-Dimethoxycinnamoylamino)ethyl)-2-methoxyphenysulfonyl)-3-methylthiourea]
APD90 + HOE 234, 30 min, then + test substance, 60 min [2]: 177 milliseconds
Fibrillation ratio (in %) ([1]; n = 10): 60%

Structure (SMILES): CNC(=O)NS(=O)(=O)c1cc(CCNC(=O)/C=C/c2ccc(OC)cc2OC)ccc1OC [Example 2, 1-(5-(2-(2 ,4-Dimethoxycinnamoylamino)ethyl)-2-methoxyphenylsulfonyl)-3-methylurea]
melting point: 210 °C

Structure (SMILES): CCNC(=S)NS(=O)(=O)c1cc(CCNC(=O)/C=C/c2ccc(OC)cc2OC)ccc1OC [Example 3, 1-(5-(2-(2,4-Dimethoxycinnamoylamino)ethyl)-2-methoxyphenylsulfonyl)-3-ethylthiourea]
melting point: 90 °C

Structure (SMILES): CCNC(=O)NS(=O)(=O)c1cc(CCNC(=O)/C=C/c2ccc(OC)cc2OC)ccc1OC [Example 4, 1-(5-(2-(2,4-Dimethoxycinnamoylamino)ethyl)-2-methoxyphenylsulfonyl)-3-ethylurea]
melting point: 96 °C

Structure (SMILES): CNC(=S)NS(=O)(=O)c1cc(CCNC(=O)/C=C/c2ccc(C)cc2C)ccc1OC [Example 5, 1-(5-(2-(2,4-Dimethylcinnamoylamino)ethyl)-2-methoxyphenylsulfonyl)-3-methylthiourea]
Fibrillation ratio (in %) ([1]; n = 10): 70%

Structure (SMILES): CNC(=S)NS(=O)(=O)c1cc(CCNC(=O)/C=C/c2ccc(OC)cc2OC)ccc1OCCOC [Example 7, 1-(5-(2-(2,4-Dimethoxycinnamoylamino)ethyl)-2-(2-methoxyethoxy)phenylsulfonyl)-3-methylthiourea]
APD90 + HOE 234, 30 min, then + test substance, 60 min [2]: 175 milliseconds

Structure (SMILES): CNC(=O)NS(=O)(=O)c1cc(CCNC(=O)/C=C/c2ccc(OC)cc2OC)ccc1OCCOC [Example 8, 1-(5-(2-(2,4-Dimethoxycinnamoylamino)ethyl)-2-(2-methoxyethoxy)phenysulfonyl)-3-methylurea]
APD90 + HOE 234, 30 min, then + test substance, 60 min [2]: 92 milliseconds
Fibrillation ratio (in %) ([1]; n = 10): 60%
Number of animals with fibrillation [1, 4]: 9
Number of animals with regular heart action [1, 4]: 11
Fibrillation ratio ([1]; Example 8 10 mg/kg i.p., chloroform 30 min after administration, n = 20, p < 0.0001 vs atropine, p = 0.024 vs combination): 45% ^1), 2)

Structure (SMILES): CCNC(=S)NS(=O)(=O)c1cc(CCNC(=O)/C=C/c2ccc(OC)cc2OC)ccc1OCCOC [Example 9, 1-(5-(2-(2,4-Dimethoxycinnamoylamino)ethyl)-2-(2-methoxyethoxy)phenylsulfonyl)-3-ethylthiourea]
Fibrillation ratio (in %) ([1]; n = 10): 63%

Structure (SMILES): CNC(=S)NS(=O)(=O)c1cc(CCNC(=O)/C=C/c2ccccc2)ccc1OC [Example 12, 1-(5-(2-(Cinnamoylamino)ethyl)-2-methoxyphenylsulfonyl)-3-methylthiourea]
Fibrillation ratio (in %) ([1]; n = 10): 63%

Structure (SMILES): CC1(C)Oc2ccc(S(=O)(=O)c3ccccc3)cc2[C@@H](N2CCCC2=O)[C@@H]1O [HOE 234, Rilmakalim, reference compound]
APD90 + HOE 234, 30 min ([2]; potassium channel opener rilmakalim (HOE 234) 1 μg/ml alone, 30 min, before test substance, 37° C., 1 Hz): 24 milliseconds and 34 milliseconds

The remaining lines, values ahead:

melting point: 227 to 229 °C
Structure (SMILES): CNC(=O)NS(=O)(=O)c1cc(CCNC(=O)/C=C/c2ccc(C)cc2C)ccc1OC [Example 6, 1-(5-(2-(2,4-Dimethylcinnamoylamino)ethyl)-2-methoxyphenylsulfonyl)-3-methylurea]

melting point: 150 °C
Structure (SMILES): CNC(=S)NS(=O)(=O)c1cc(CCNC(=O)/C=C/c2ccccc2)ccc1OCCOC [Example 17, 1-(5-(2-(Cinnamoylamino)ethyl)-2-(2-methoxyethoxy)phenylsulfonyl)-3-methylthiourea]

melting point: 65 °C
Structure (SMILES): CNC(=O)NS(=O)(=O)c1cc(CCNC(=O)/C=C/c2ccccc2)ccc1OCCOC [Example 19, 1-(5-(2-(Cinnamoylamino)ethyl)-2-(2-methoxyethoxy)phenylsulfonyl)-3-methylurea]

melting point: 188 to 190 °C
Structure (SMILES): CNC(=S)NS(=O)(=O)c1cc(CCNC(=O)/C=C/c2cc(Cl)ccc2OC)ccc1OC [Example 21, 1-(5-(2-(5-Chloro-2-methoxycinnamoylamino)ethyl)-2-methoxyphenylsulfonyl)-3-methylthiourea]

melting point: 171 to 175 °C
Structure (SMILES): C=CCOc1ccc(CCNC(=O)/C=C/c2ccc(OC)cc2OC)cc1S(=O)(=O)NC(=S)NC [Example 23, 1-(2-Allyloxy-5-(2-(2,4-dimethoxycinnamoylamino)ethyl)phenylsulfonyl)-3-methylthiourea]

melting point: 76 to 78 °C
Structure (SMILES): CNC(=S)NS(=O)(=O)c1cc(CCNC(=O)/C=C/c2ccc(Cl)cc2Cl)ccc1OCCOC [Example 24]

melting point: 73 °C
Structure (SMILES): CNC(=S)NS(=O)(=O)c1cc(CCNC(=O)/C=C/c2cc(C(C)(C)C)ccc2OC)ccc1OCCOC [Example 25, 1-(5-(2-(5-tert-Butyl-2-methoxycinnamoylamino)ethyl)-2-(2-methoxyethoxy)phenyl-sulfonyl)-3-methylthiourea]

melting point: 116 °C
Structure (SMILES): CNC(=S)NS(=O)(=O)c1cc(CCNC(=O)/C=C/c2ccc(C)cc2C)ccc1OCCOC [Example 26, 1-(5-(2-(2,4-Dimethylcinnamoylamino)ethyl)-2-(2-methoxyethoxy)phenylsufonyl)-3-methylthiourea]
